Earlier results on four compounds are cited in US20050043786A1, “Methods and apparatus for treatment of aneurysmal tissue” (Medtronic AVE, Inc., priority 2003, published 2005).

The structures appear in SMILES notation.

The conditions of this series: for route of clearance / elimination: in vivo.

With `C[C@H](CS)C(=O)N1CCC[C@H]1C(=O)O` [captopril], where the note is “given orally”, the bioavailability entry is “about 75%”.
`CCC(=O)O[C@@H](O[P@](=O)(CCCCc1ccccc1)CC(=O)N1C[C@H](C2CCCCC2)C[C@H]1C(=O)O)C(C)C` [fosinopril]: the “route of clearance / elimination” value is “balanced elimination by the liver and kidneys”.
Regarding `NCCCC[C@H](N[C@@H](CCc1ccccc1)C(=O)O)C(=O)N1CCC[C@H]1C(=O)O` [lisinopril], for the setting “oral administration”, the “time of peak concentrations in the plasma” value is “about 7 hours”.
Turning to `CCOC(=O)[C@H](CCc1ccccc1)N[C@@H](C)C(=O)N1CC2(C[C@H]1C(=O)O)SCCS2` [spirapril], the “route of clearance / elimination” value is “balanced elimination by the liver and kidneys”.
